In patent US20220048987A1, “METHOD OF TREATMENT TO PREVENT OR REVERSE AGE-ASSOCIATED INFLAMMATION, COGNITIVE DECLINE, AND NEURODEGENERATION” (The Board of Trustees of the Leland Stanford Junior …, priority 2020, published 2022):

Tests used:
Type in all cases: cell-based
[1] = tested on: mouse astrocytes; assay: OCR and ECAR (Seahorse) in mouse astrocytes; conditions: primary mouse astrocytes, 100 nM, 20 h
Description: (§1) Cells were plated at 1.8×10^6 cells per well in a Seahorse XF24 Cell Culture Microplate (Agilent). Cells were then treated with indicated inhibitors or agonists in each experiment for 20 h. Cells were washed twice with Agilent Seahorse XF Media (Agilent) supplemented with 1 mM pyruvate, 2 mM L-glutamine, and 10 mM D-glucose; a final volume of 525 μl was placed in each well. Cells were then incubated in a 0% CO2 chamber at 37° C. for 1 h before being placed into a Seahorse XFe24 Analyzer (Agilent). For OCR and ECAR mitostress test experiments, cells were treated with 1 μM oligomycin, 2 μM carbonyl cyanide p-trifluoromethoxyphenylhydrazone (FCCP), and 0.5 μM rotenone/antimycin (indicated by three black arrows in each seahorse trace). For mitoFlex Fuel test experiments, cells were treated with UK5099 (200 μM) and BPTES (200 μM)/Etomoxir (80 μM). A total of three OCR and pH measurements were taken after each compound was administered. All Seahorse experiments were repeated at least three times unless otherwise indicated. All OCR and ECAR data were normalized to cell number per well using CyQUANT (ThermoFisher Scientific, Waltham, Mass., USA).
Primary astrocyte cultures were prepared from cerebral cortices of postnatal day 1-2 C57BL/6J mice. […]

[2] = tested on: mouse hippocampal neurons; assay: OCR and ECAR (Seahorse) in mouse hippocampal neurons; conditions: primary mouse hippocampal neurons, 100 nM, 20 h
Description: as §1
Hippocampi were dissected from embryonic Day 17.5 mice embryos, dissociated using trypsin (2 mg/ml) and DNase I (0.6 mg/ml), and plated at a density of 100, 000 cells per well in Seahorse XF24 culture plate coated with poly-L-lysine. […]

[3] = tested on: human monocyte-derived macrophages (human MDMs); assay: Real-time oxygen consumption rate (OCR) and ECAR (Seahorse) in human MDMs; conditions: 20 h
Description: as §1
Peripheral blood mononuclear cells from de-identified healthy donors (young<35 years old, aged>65 years old) were obtained from the Stanford Blood Center and transferred to 50 ml conical tubes. Samples were diluted with 20 ml PBS and layered onto 10 ml of Ficoll-Paque (GE Healthcare) using a Pasteur pipette. Tubes were centrifuged at 1,500 r.p.m. for 25 min without brake at 20° C. The mononuclear cell layer was transferred to a new 50 ml conical tube, resuspended in 50 ml 1×PBS and centrifuged at 1500 r.p.m. for 10 min, repeated twice. After centrifugation, monocytes were isolated using a Monocyte Isolation Kit, human (MACS; Miltenyi Biotech). Cells were then plated 10×10^6 per 10-cm petri dish and differentiated for 7 days in Roswell Park Memorial Institute (RPMI) media supplemented with 10% FBS, 1% penicillin-streptomycin, and 50 ng ml^−1 M-CSF (Peprotech).

[4] = tested on: mouse peritoneal macrophages; assay: OCR and ECAR (Seahorse) in mouse peritoneal macrophages; conditions: aged (18-20 mo) mouse peritoneal macrophages, 100 nM, 20 h
Description: as §1, with “USA). […]” for “USA).”
Cd11bCre, and WT mice. Mice were injected intraperitoneally with 1.5 ml 3% (w/v) thioglycolate medium (BD Biosciences), and primary macrophages were isolated 3-4 days later by flushing with ice-cold 1×PBS buffer (Corning). […]

[5] = tested on: human MDMs; assay: Chemokine and cytokine multiplex assay, supernatant of human MDMs; conditions: aged (>65 yo) human MDMs, stimulated 8 h later
Description: Hippocampal lysates or mouse plasma were stored at −80° C. and cytokine analysis was carried out at the Human Immune Monitoring Core (Stanford University) or Eve Technologies (Calgary, Alberta, Canada) using Luminex mouse 39-plex kits and Human 71-plex kits. Plates were read using a Luminex LabMap200 instrument or a MSD Chemiluminescence instrument with a lower bound of 100 beads per sample per measured cytokine. Each sample was tested in triplicate. Mean fluorescence intensity (MFI) was averaged over duplicate wells for each cytokine per sample on each plate. All were transcardially perfused prior to isolation of hippocampi and other brain tissue.
Peripheral blood mononuclear cells from de-identified healthy donors (young<35 years old, aged>65 years old) were obtained from the Stanford Blood Center and transferred to 50 ml conical tubes. […]
Plasmid-containing human GYS1 shRNA (Table 3) or Scr (2 μg) (HuSH shRNA shGYS1 Lenti Cloning Vector [pGFP-C-shLenti]) were incubated with a mixture of nucleofection solution and P4 primary cell supplement (82 μl:18 μl nucleofection solution:supplement) and placed in nucleofection cuvettes. […] Cells were then plated in 10-cm plates and incubated 37° C. under 5% CO2 for 8 h before GYS1 protein expression was analyzed by quantitative immunoblotting.

CCCCC[C@H](O)/C=C/[C@H]1[C@H](O)CC(=O)[C@@H]1C/C=C\CCCC(=O)O [PGE2, prostaglandin E2]
OCR and ECAR [1]: no significant effects
OCR and ECAR [2]: no significant effects
ECAR (extracellular acidification rate, glycolysis) ([3]; human MDMs, dose response): decreased glycolysis
basal OCR (oxygen consumption) ([3]; human MDMs, dose response): suppressed oxygen consumption

NS(=O)(=O)c1ccc(-n2nc(C(F)(F)F)cc2-c2ccc(Cl)cc2)cc1 [SC236]
basal respiration and ECAR [4]: partially phenocopies EP2 receptor antagonism

CCCC1([C@H](O)C/C=C/[C@H]2[C@H](O)CC(=O)[C@@H]2CCCCCCC(=O)OC)CCC1 [butaprost]
OCR and ECAR [1]: no significant effects
immune phenotypes (immune factors in supernatant) of aged human MDMs + GYS1 shRNA [5]: refractory to further EP2 receptor activation
OCR and ECAR [2]: no significant effects
OCR in GYS1-deficient aged human MDMs ([3]; aged (>65 yo) human MDMs nucleofected with shGYS1, 100 nM, 8 h post nucleofection): refractory to treatment
bioenergetic or immune factor phenotypes of aged human MDMs lacking GYS1 ([3]; aged human MDMs + GYS1 shRNA, 100 nM): did not alter
